Biological target: T1, 5α-Reductase of Rat Liver Microsomes (Rattus norvegicus, UniProt P24008)
T1 sequence (P24008 1-259): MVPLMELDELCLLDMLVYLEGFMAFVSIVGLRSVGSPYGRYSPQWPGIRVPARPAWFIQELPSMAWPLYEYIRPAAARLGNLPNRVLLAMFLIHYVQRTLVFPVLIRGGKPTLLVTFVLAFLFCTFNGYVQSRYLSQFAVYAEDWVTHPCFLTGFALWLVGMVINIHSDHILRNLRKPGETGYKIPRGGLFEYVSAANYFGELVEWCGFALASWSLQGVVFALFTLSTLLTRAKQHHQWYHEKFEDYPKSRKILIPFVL
Assay: not given
Details: not given

Compound | inhibitory activity in [^3 H]4-MA binding assay
Phosphatidylcholine | slightly stimulatory
CC1=C(/C=C/C(C)=C/C=C/C(C)=C/CO)C(C)(C)CCC1 [retinol] | slightly stimulatory
CCCCC[C@H](O)/C=C/[C@@H]1[C@@H](C/C=C\CCCC(=O)O)[C@@H](O)C[C@H]1O [Prostaglandin F2a] | not active
phosphatidyl ethanolamine | slightly stimulatory

Same assay, conditions: 40 μM

Compound | stimulation or inhibition of [^3 H]4-MA binding
CC1=C(/C=C/C(C)=C/C=C/C(C)=C/C=O)C(C)(C)CCC1 [retinal] | no stimulation or inhibition

Same assay, conditions: 0.2 mM

Compound | inhibitory activity in [^3 H]4-MA binding assay
CCCCC[C@H](O)/C=C/[C@@H]1[C@@H](CCCCCCC(=O)O)[C@@H](O)C[C@H]1O [prostaglandin F1a] | somewhat active
CCCCC[C@H](O)/C=C/[C@H]1C=CC(=O)[C@@H]1CCCCCCC(=O)O [prostaglandin A1] | somewhat active
CCCCC[C@H](O)/C=C/[C@H]1C(=O)C[C@H](O)[C@@H]1C/C=C\CCCC(=O)O [prostaglandin D2] | somewhat active
CCCCC[C@H](O)/C=C/[C@H]1[C@H](O)CC(=O)[C@@H]1CCCCCCC(=O)O [prostaglandin E1] | somewhat active
CCCCC[C@H](O)/C=C/[C@H]1C=CC(=O)[C@@H]1C/C=C\CCCC(=O)O [prostaglandin A2] | somewhat active
CCCCC[C@H](O)/C=C/C1=C(CCCCCCC(=O)O)C(=O)CC1 [prostaglandin B1] | somewhat active
CCCCC[C@H](O)/C=C/C1=C(C/C=C\CCCC(=O)O)C(=O)CC1 [prostaglandin B2] | somewhat active

Same assay, conditions: Table 1, 200 μM; 200 µM

Compound | % Inhibition of [^3 H]4-MA binding
CC/C=C\C/C=C\C/C=C\CCCCCCCC(=O)OC [linolenic acid methyl ester] | 32%

Biological target: T1, 5α-Reductase of Rat Liver Microsomes
Assay: biochemical
Details: not given

Compound | IC50
CCCCC/C=C\C/C=C\CCCCCCCC(=O)O [Linoleic acid] | 117 µM
CCCCC/C=C\C/C=C\C/C=C\C/C=C\CCCC(=O)O [Arachidonic acid] | 65 µM
CCCCCCCC/C=C\CCCCCCCC(=O)O [Oleic acid] | 128 µM

Same assay, conditions: 1 h, read-out: stimulation of [^3 H]4-MA binding

Compound | activation at 200 µM
CC1=C(/C=C/C(C)=C/C=C/C(C)=C/C=O)C(C)(C)CCC1 [retinal] | 58%

Same assay, conditions: read-out: % Inhibition of [^3 H]4-MA binding, Table 1, 10 μM

Compound | inhibition at 10 µM
CC/C=C\C/C=C\C/C=C\CCCCCCCC(=O)O [α-Linolenic acid, α-linolenic acid] | 19 ± 3%
CCCCC/C=C\C/C=C\CCCCCCCC(=O)O [Linoleic acid] | < 10%
CCCCC/C=C\C/C=C\C/C=C\C/C=C\CCCC(=O)O [Arachidonic acid] | < 10%
CCCCCCCC/C=C\CCCCCCCC(=O)O [Oleic acid] | < 10%

Same assay, conditions: read-out: % Inhibition of [^3 H]4-MA binding, Table 1, 40 μM

Compound | inhibition at 40 µM
CC/C=C\C/C=C\C/C=C\CCCCCCCC(=O)O [α-Linolenic acid, α-linolenic acid] | 27 ± 7%
CCCCC/C=C\C/C=C\CCCCCCCC(=O)O [Linoleic acid] | 12 ± 3%
CCCCC/C=C\C/C=C\C/C=C\C/C=C\CCCC(=O)O [Arachidonic acid] | 30 ± 10%
CCCCCCCC/C=C\CCCCCCCC(=O)O [Oleic acid] | 16 ± 6%

Same assay, conditions: read-out: % Inhibition of [^3 H]4-MA binding, Table 1, 200 μM

Compound | inhibition at 200 µM
CC/C=C\C/C=C\C/C=C\CCCCCCCC(=O)O [α-Linolenic acid, α-linolenic acid] | 84 ± 6%
CCCCC/C=C\C/C=C\CCCCCCCC(=O)O [Linoleic acid] | 86 ± 4%
CCCCC/C=C\C/C=C\C/C=C\C/C=C\CCCC(=O)O [Arachidonic acid] | 88 ± 5%
CCCCCCCCCCCCCCCC(=O)O [Palmitic acid] | < 10%
CCCCCCCC/C=C\CCCCCCCC(=O)O [Oleic acid] | 63 ± 12%

Same assay, conditions: read-out: % Inhibition of [^3 H]4-MA binding, Table 2, 5 μM

Compound | inhibition at 5 µM
CC/C=C\C/C=C\C/C=C\CCCCCCCC(=O)O [α-Linolenic acid, α-linolenic acid] | < 10%
CCCCCCCC/C=C\CCCCCCCC(=O)O [Oleic acid] | < 10%

Same assay, conditions: read-out: % Inhibition of [^3 H]4-MA binding, Table 2, 10 μM

Compound | inhibition at 10 µM
CC/C=C\C/C=C\C/C=C\CCCCCCCC(=O)O [α-Linolenic acid, α-linolenic acid] | 19%
CCCCC/C=C\C/C=C\CCCCCCCC(=O)O [Linoleic acid] | < 10%
CCCCC/C=C\C/C=C\C/C=C\C/C=C\CCCC(=O)O [Arachidonic acid] | < 10%
CCCCCCCC/C=C\CCCCCCCC(=O)O [Oleic acid] | < 10%

Same assay, conditions: read-out: % Inhibition of [^3 H]4-MA binding, Table 2, 40 μM

Compound | inhibition at 40 µM
CC/C=C\C/C=C\C/C=C\CCCCCCCC(=O)O [α-Linolenic acid, α-linolenic acid] | 27%
CCCCC/C=C\C/C=C\CCCCCCCC(=O)O [Linoleic acid] | 12%
CCCCC/C=C\C/C=C\C/C=C\C/C=C\CCCC(=O)O [Arachidonic acid] | 30%
CCCCCCCC/C=C\CCCCCCCC(=O)O [Oleic acid] | 16%

Same assay, conditions: read-out: % Inhibition of [^3 H]4-MA binding, Table 2, 200 μM

Compound | inhibition at 200 µM
CC/C=C\C/C=C\C/C=C\CCCCCCCC(=O)O [α-Linolenic acid, α-linolenic acid] | 84%
CCCCC/C=C\C/C=C\CCCCCCCC(=O)O [Linoleic acid] | 86%
CCCCC/C=C\C/C=C\C/C=C\C/C=C\CCCC(=O)O [Arachidonic acid] | 88%
CCCCCCCCCCCCCCCC(=O)O [Palmitic acid] | < 10%
CCCCCCCC/C=C\CCCCCCCC(=O)O [Oleic acid] | 63%

System: hamster flank organ
Assay: Flank organ, castrated immature male hamsters, topical treatment
Format: in vivo, Syrian golden hamster
Details: Table 5, T 0.5 μg + fatty acid 1 mg, 21 days
Description: One to two weeks after castration, the hair on the lower back of each animal was clipped with an electric hair clipper and then shaved weekly to expose the flank organs. The animals were divided into 5 animals/treatment group. A treatment solution (5 μl) was applied topically to the right flank organ once a day using a Pipetteman and a polypropylene disposable tip. Unless specified the left flank organ was not treated. The treatment solution contained either (a) ethanol alone (vehicle and control), (b) an androgen (T or 5α-DHT), (c) a fatty acid, or (d) a combination of an androgen and a fatty acid. The flank organ was wiped with an alcohol pad to remove residual compound before each treatment. […] The flank organs, both the treated and untreated sides, were evaluated with methods to be described below to determine the effect of these treatments of the growth of the pigmented macules and the sebaceous glands. The body weight of each animal was recorded before and after treatment.
The data are presented as mean ± standard deviation. […]

Compound | Percent Inhibition
CC/C=C\C/C=C\C/C=C\CCCCCCCC(=O)O [α-Linolenic acid, α-linolenic acid] | 44%
CCCCC/C=C\C/C=C\CCCCCCCC(=O)O [Linoleic acid] | 52%
CCCCC/C=C\C/C=C\C/C=C\C/C=C\CCCC(=O)O [Arachidonic acid] | 28%
CCCCCCCCCCCCCCCC(=O)O [Palmitic acid] | 25%
CCCCCCCC/C=C\CCCCCCCC(=O)O [Oleic acid] | 43%

Same assay, conditions: Table 5, T 0.5 μg + fatty acid 1 mg, 21 days; T alone 49.6 ± 8.3

Compound | Pigmented macule Right (+T)
CC/C=C\C/C=C\C/C=C\CCCCCCCC(=O)O [α-Linolenic acid, α-linolenic acid] | 27.6 ± 8.2 mm^2
CCCCC/C=C\C/C=C\CCCCCCCC(=O)O [Linoleic acid] | 23.9 ± 5.0 mm^2
CCCCC/C=C\C/C=C\C/C=C\C/C=C\CCCC(=O)O [Arachidonic acid] | 35.7 ± 7.9 mm^2
CCCCCCCCCCCCCCCC(=O)O [Palmitic acid] | 37.2 ± 6.3 mm^2
CCCCCCCC/C=C\CCCCCCCC(=O)O [Oleic acid] | 28.1 ± 8.3 mm^2

Same assay, conditions: Table 5, fatty acid 1 mg without T, 21 days

Compound | Pigmented macule Left
CC/C=C\C/C=C\C/C=C\CCCCCCCC(=O)O [α-Linolenic acid, α-linolenic acid] | 4.1 ± 1.2 mm^2
CCCCC/C=C\C/C=C\CCCCCCCC(=O)O [Linoleic acid] | 5.4 ± 1.6 mm^2
CCCCC/C=C\C/C=C\C/C=C\C/C=C\CCCC(=O)O [Arachidonic acid] | 4.7 ± 1.6 mm^2
CCCCCCCCCCCCCCCC(=O)O [Palmitic acid] | 5.1 ± 2.9 mm^2
CCCCCCCC/C=C\CCCCCCCC(=O)O [Oleic acid] | 4.7 ± 0.5 mm^2

Same assay, conditions: hamster, in vivo

Compound | inhibition of T-induced growth of pigmented macule
CC/C=C\C/C=C\C/C=C\CCCCCCCC(=O)O [α-Linolenic acid, α-linolenic acid] | less active than γ-LA
CCCCC/C=C\C/C=C\CCCCCCCC(=O)O [Linoleic acid] | active
CCCCC/C=C\C/C=C\C/C=C\C/C=C\CCCC(=O)O [Arachidonic acid] | Weak inhibitions
CCCCCCCCCCCCCCCC(=O)O [Palmitic acid] | Weak inhibitions
CCCCCCCC/C=C\CCCCCCCC(=O)O [Oleic acid] | active

From US5605929A, “Methods and compositions for inhibiting 5α-reductase activity” (priority 1995, dated 1997)
